The results in this text go back to ChEMBL document CHEMBL4028802, “DILIrank: the largest reference drug list ranked by the risk for developing drug-induced liver injury in humans” (Drug Discov Today, 2016).

The species entered for data set [1] is Homo sapiens. Briefly: Liver toxicity in human assessed as induction of drug-induced liver injury by measuring severity class index.
Data set [2] is filed under the species Homo sapiens. Briefly: Liver toxicity in human assessed as induction of drug-induced liver injury by measuring verified drug-induced liver injury concern status.
Throughout, for DILI severity class: key of the grades not given here.

For `CC(COc1ccccc1)NN` (stereo unspecified) [PHENOXYPROPAZINE], the DILI_severity_class in data set [1] is listed as 8. For the same compound, the DILI_Concern entry in data set [2] is “Most-Dili-Concern”.

Turning to `CC(C)(N)Cc1ccccc1` [PHENTERMINE], in data set [1], the DILI_severity_class stood at 0. Further, the DILI_Concern entry in data set [2] is “Less-Dili-Concern”.

On to `Cc1ccc(N(CC2=NCCN2)c2cccc(O)c2)cc1` [PHENTOLAMINE], for which, in data set [1], the DILI_severity_class is 0. In addition, the DILI_Concern entry in data set [2] was “No-Dili-Concern”.

Regarding `O=C1NC(=O)C(c2ccccc2)(c2ccccc2)N1` [PHENYTOIN], the DILI_severity_class in data set [1] was 8. Besides, the DILI_Concern result in data set [2] is “Most-Dili-Concern”.

As to `CNC(=O)Oc1ccc2c(c1)[C@]1(C)CCN(C)[C@@H]1N2C` [PHYSOSTIGMINE], in data set [1], the DILI_severity_class worked out at 0. Moreover, the DILI_Concern result in data set [2] is given as “No-Dili-Concern”.

As for `CC1=C(C/C=C(\C)CCC[C@H](C)CCC[C@H](C)CCCC(C)C)C(=O)c2ccccc2C1=O` [PHYTONADIONE], the DILI_severity_class in data set [1] is recorded as 0. In data set [2], the DILI_Concern entry is “No-Dili-Concern”.

In the case of `CC[C@@H]1C(=O)OC[C@@H]1Cc1cncn1C` [PILOCARPINE], the DILI_severity_class in data set [1] is recorded as 3. Further, the DILI_Concern entry in data set [2] is reported as “Ambiguous-Dili-Concern”.

Turning to `O=c1[nH]c2ccccc2n1C1CCN(CCCC(c2ccc(F)cc2)c2ccc(F)cc2)CC1` [PIMOZIDE], in data set [1], the DILI_severity_class was found to be 0. Also, the DILI_Concern entry in data set [2] is given as “No-Dili-Concern”.

Take `CC(C)NCC(O)COc1cccc2[nH]ccc12` (stereo unspecified) [PINDOLOL]: in data set [1], the DILI_severity_class was 0. Moreover, the DILI_Concern entry in data set [2] is “No-Dili-Concern”.

Consider `CCc1ccc(CCOc2ccc(CC3SC(=O)NC3=O)cc2)nc1` (stereo unspecified) [PIOGLITAZONE], for which the DILI_severity_class in data set [1] was determined as 3. In addition, the DILI_Concern entry in data set [2] was “Less-Dili-Concern”.

Regarding `NC(=O)C1CCN(CCCN2c3ccccc3Sc3ccc(Cl)cc32)CC1` [PIPAMAZINE], the DILI_severity_class in data set [1] turned out to be 8. In data set [2], the DILI_Concern entry is “Most-Dili-Concern”.

Take `CCN1CCN(C(=O)N[C@@H](C(=O)N[C@@H]2C(=O)N3[C@@H]2SC(C)(C)[C@@H]3C(=O)O)c2ccccc2)C(=O)C1=O` [PIPERACILLIN]: in data set [1], the DILI_severity_class stood at 3. Also, the DILI_Concern entry in data set [2] is recorded as “Ambiguous-Dili-Concern”.

For `CN1C(C(=O)Nc2ccccn2)=C(O)c2ccccc2S1(=O)=O` [PIROXICAM], in data set [1], the DILI_severity_class worked out at 3. Besides, in data set [2], the DILI_Concern entry is given as “Less-Dili-Concern”.

For `CC(C(=O)O)c1ccc(N2CC=CC2)c(Cl)c1` (stereo unspecified) [PIRPROFEN], in data set [1], the DILI_severity_class came out at 8. For the same compound, the DILI_Concern entry in data set [2] is “Most-Dili-Concern”.

On to `O=C(O)C[C@H](O)C[C@H](O)/C=C/c1c(C2CC2)nc2ccccc2c1-c1ccc(F)cc1` [PITAVASTATIN], for which the DILI_severity_class in data set [1] is recorded as 3. Besides, the DILI_Concern entry in data set [2] is “Ambiguous-Dili-Concern”.

For the compound `c1cc(CN2CCCNCCNCCCNCC2)ccc1CN1CCCNCCNCCCNCC1` [PLERIXAFOR], the DILI_severity_class in data set [1] was 0. Further, the DILI_Concern entry in data set [2] was “No-Dili-Concern”.

On to `CN1C(CSCC(F)(F)F)Nc2cc(Cl)c(S(N)(=O)=O)cc2S1(=O)=O` (stereo unspecified) [POLYTHIAZIDE], for which the DILI_severity_class in data set [1] is given as 2. Moreover, the DILI_Concern result in data set [2] is reported as “Ambiguous-Dili-Concern”.

Regarding `CC[C@@H]([C@H](C)O)n1ncn(-c2ccc(N3CCN(c4ccc(OC[C@@H]5CO[C@@](Cn6cncn6)(c6ccc(F)cc6F)C5)cc4)CC3)cc2)c1=O` [POSACONAZOLE], the DILI_severity_class in data set [1] is 8. In addition, the DILI_Concern entry in data set [2] is reported as “Ambiguous-Dili-Concern”.

As to `C#CCC(Cc1cnc2nc(N)nc(N)c2n1)c1ccc(C(=O)N[C@@H](CCC(=O)O)C(=O)O)cc1` (stereo partly specified) [PRALATREXATE], in data set [1], the DILI_severity_class was found to be 3. Also, the DILI_Concern result in data set [2] is recorded as “Ambiguous-Dili-Concern”.

For the compound `C[n+]1ccccc1/C=N/O` [PRALIDOXIME], the DILI_severity_class in data set [1] is 3. Also, in data set [2], the DILI_Concern entry is “Ambiguous-Dili-Concern”.

`CCCN[C@H]1CCc2nc(N)sc2C1` [PRAMIPEXOLE]: in data set [1], the DILI_severity_class came out at 2. Further, the DILI_Concern result in data set [2] is “Ambiguous-Dili-Concern”.

As to `CC[C@H](C)[C@H](NC(=O)[C@@H]1CCCN1C(=O)CNC(=O)[C@H](Cc1ccccc1)NC(=O)[C@H](CC(N)=O)NC(=O)[C@H](CC(N)=O)NC(=O)[C@H](CO)NC(=O)[C@H](CO)NC(=O)[C@H](Cc1c[nH]cn1)NC(=O)[C@@H](NC(=O)[C@H](CC(C)C)NC(=O)[C@H](Cc1ccccc1)NC(=O)[C@H](CC(N)=O)NC(=O)[C@H](C)NC(=O)[C@H](CC(C)C)NC(=O)[C@H](CCCNC(=N)N)NC(=O)[C@H](CCC(N)=O)NC(=O)[C@@H](NC(=O)[C@H](C)NC(=O)[C@@H]1CSSC[C@H](NC(=O)[C@@H](N)CCCCN)C(=O)N[C@@H](CC(N)=O)C(=O)N[C@@H]([C@@H](C)O)C(=O)N[C@@H](C)C(=O)N[C@@H]([C@@H](C)O)C(=O)N1)[C@@H](C)O)C(C)C)C(=O)N[C@@H](CC(C)C)C(=O)N1CCC[C@H]1C(=O)N1CCC[C@H]1C(=O)N[C@H](C(=O)N[C@@H](CC(N)=O)C(=O)N[C@H](C(=O)NCC(=O)N[C@@H](CO)C(=O)N[C@@H](CC(N)=O)C(=O)N[C@H](C(=O)N[C@@H](Cc1ccc(O)cc1)C(N)=O)[C@@H](C)O)C(C)C)[C@@H](C)O` [PRAMLINTIDE], the DILI_severity_class in data set [1] amounted to 0. Moreover, in data set [2], the DILI_Concern result is reported as “No-Dili-Concern”.

In the case of `CC(=O)Oc1cc2c(s1)CCN(C(C(=O)C1CC1)c1ccccc1F)C2.Cl` (stereo unspecified) [PRASUGREL HYDROCHLORIDE], the DILI_severity_class in data set [1] is 0. Moreover, the DILI_Concern result in data set [2] is reported as “Less-Dili-Concern”.

For the compound `CC[C@H](C)C(=O)O[C@H]1C[C@H](O)C=C2C=C[C@H](C)[C@H](CC[C@@H](O)C[C@@H](O)CC(=O)O)[C@H]21` [PRAVASTATIN], the DILI_severity_class in data set [1] was determined as 3. Further, the DILI_Concern entry in data set [2] was “Less-Dili-Concern”.

As for `COc1cc2nc(N3CCN(C(=O)c4ccco4)CC3)nc(N)c2cc1OC` [PRAZOSIN], the DILI_severity_class in data set [1] worked out at 3. For the same compound, in data set [2], the DILI_Concern result is on record as “Ambiguous-Dili-Concern”.

As for `C[C@]12C=CC(=O)C=C1CC[C@@H]1[C@@H]2[C@@H](O)C[C@@]2(C)[C@H]1CC[C@]2(O)C(=O)CO` [PREDNISOLONE], the DILI_severity_class in data set [1] is 3. The DILI_Concern entry in data set [2] is given as “Less-Dili-Concern”.

Take `C[C@]12C=CC(=O)C=C1CC[C@@H]1[C@@H]2C(=O)C[C@@]2(C)[C@H]1CC[C@]2(O)C(=O)CO` [PREDNISONE]: the DILI_severity_class in data set [1] amounted to 3. In data set [2], the DILI_Concern result is “Less-Dili-Concern”.

On to `COc1cc(NC(C)CCCN)c2ncccc2c1` (stereo unspecified) [PRIMAQUINE], for which the DILI_severity_class in data set [1] came to 0. In addition, the DILI_Concern result in data set [2] is listed as “No-Dili-Concern”.

Turning to `CCC1(c2ccccc2)C(=O)NCNC1=O` [PRIMIDONE], in data set [1], the DILI_severity_class was 0. The DILI_Concern entry in data set [2] is reported as “No-Dili-Concern”.

For `CCCN(CCC)S(=O)(=O)c1ccc(C(=O)O)cc1` [PROBENECID], the DILI_severity_class in data set [1] was 6. The DILI_Concern result in data set [2] is on record as “Ambiguous-Dili-Concern”.

As to `CCN(CC)CCNC(=O)c1ccc(N)cc1` [PROCAINAMIDE], the DILI_severity_class in data set [1] is on record as 4. Besides, the DILI_Concern result in data set [2] is given as “Less-Dili-Concern”.

As to `CNNCc1ccc(C(=O)NC(C)C)cc1` [PROCARBAZINE], the DILI_severity_class in data set [1] came out at 3. In data set [2], the DILI_Concern result is reported as “Less-Dili-Concern”.

`CN1CCN(CCCN2c3ccccc3Sc3ccc(Cl)cc32)CC1` [PROCHLORPERAZINE]: in data set [1], the DILI_severity_class worked out at 2. In addition, in data set [2], the DILI_Concern entry is reported as “Less-Dili-Concern”.
